Values quoted from earlier work, collected in paper PMC9747611 (Hypertension Research, 2022).

Test system: aldosterone synthase
Settings: cited from earlier work

N#Cc1ccc([C@H]2CCc3cncn32)c(F)c1 [LCI699]
increase in 11-deoxycorticosterone levels: up to 10 fold
